According to US20070213291A1, “Therapeutically useful synthetic oligonucleotides” (priority 1999, published 2007):

Experiments:
Type in all cases: cell-based
[1] = tested on: MCF-7 human breast cancer cells; assay: Inhibition of MCF-7 cell proliferation (MTT); details: for % INHIBITION of MCF-7 human breast cancer cell proliferation: 100 μg/ml, 48 h, 5×10^5 cells/ml
Summary of the method: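 Cells at 2.5×10^5 cells/ml (GT 3- and 6-base series at 5×10^5 cells/ml) treated with 100 μg/ml of 2-45-base oligonucleotide sequences versus untreated control for 48 h at 37 °C, 5% CO2. Proliferation read by MTT reduction at 570 nm.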

[2] = tested on: A20 murine B leukemia cells; assay: Inhibition of A20 cell proliferation (MTT); details: 100 μg/ml, 48 h
Procedure: Cells were seeded in 6 (1 ml/well), 24 (0.5 ml/well) or 96 (0.1 ml/well) well flat-bottom microplates and were maintained at 37° C. in a 5% CO2 atmosphere. Unless stated otherwise, 2.5×10^5 cells/ml were incubated with 0 μg/ml (control) and 100 μg/ml (treated) of 2 to 45 base sequences containing A, C, G and T for 48 h.
Cell proliferation was measured using dimethylthiazol-diphenyl-tetrazolium (MTT) reduction (Mosman et al. J. Immunol. Methods 65:55, 1983). MTT was measured at a wavelength of 570 nm using a multiplate spectrophotometer reader (ELX800, Bio-TEK Instruments Inc., Winooski, Vt.).
A20 murine leukemia B cells are a suspension tumor model. A20 murine leukemia B cells were incubated with 6 base GT sequences (Table 19).

[3] = tested on: Jurkat human leukemia T cells; assay: Apoptosis by phosphatidylserine/annexin V-FITC flow cytometry; details: 50 μM sequence
Summary of the method: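 Jurkat cells were exposed to 3–7-base oligonucleotides (GT, ACGT, AG, GG, AGT, CGT sequences) at 50 μM. Separately, 6-base GT and complementary AC sequences, alone or hybridized 1:1 (10 min, 65 °C), were applied for 24 h. Phosphatidylserine exposure was quantified by flow cytometry with FITC-annexin V.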

[4] = tested on: PC-3 human prostate cancer cells; assay: Inhibition of PC-3 cell proliferation (MTT); details: 100 μg/ml, 48 h, 5×10^5 cells/ml
Summary of the method: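 PC-3 cells (5×10^5 cells/ml) exposed 48 h at 37 °C to 3- and 6-base GT oligonucleotide sequences at 100 μg/ml versus untreated control. Proliferation read by MTT reduction at 570 nm.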

[5] = tested on: Jurkat human leukemia T cells; assay: Cell cycle stage in Jurkat cells (propidium iodide flow cytometry); details: 24 h
Summary of the method: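 Phase distribution (G0/G1, early, mid and late S, G2/M) came from flow cytometry with doublet discrimination on propidium iodide-stained nuclei. Jurkat cells were given 24 h exposure to 2–45-base oligonucleotides, or at 1×10^6 cells/ml to single 6-base GT or AC strands heated 10 min at 65 °C or 1:1 hybridized duplex.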

rhesus monkey PBMCs = assay: Cytokine production by rhesus monkey PBMC (ELISA); details: PBMC of 4 healthy rhesus monkeys, 100 μg/ml, 48 h
Summary of the method: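 Peripheral blood mononuclear cells taken from 4 healthy rhesus monkeys were cultured at 1×10^6 cells with 100 μg/ml of each test sequence for 48 h at 37° C. under 5% CO2. Cytokine levels in 100 μl of supernatant were quantified in pg/ml by commercial ELISA and reported as fold increase over untreated control cells.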

[6] = tested on: Jurkat human leukemia T cells; assay: NuMA release into supernatant (ELISA); details: for % NuMA released (treated vs untreated cells): 50 μM sequence
Summary of the method: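 Jurkat T cells (1×10^6/ml) exposed to GT-containing oligonucleotide sequences, at 50 μM in some experiments, for 24 h in some experiments. NuMA released into the supernatant quantified by commercial ELISA.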

[7] = Jurkat 1×10^6 cells/ml, sequences heated 10 minutes at 65° C.

Row | Sequence | % INHIBITION of MCF-7 human breast cancer cell proliferation [1] [%] | % INHIBITION of A20 murine B leukemia cell proliferation [2] [%] | % of cells in apoptosis (positive for PS/A-V staining) [3] [%] | % INHIBITION of PC-3 human prostate cancer cell proliferation [4] [%] | % of cells in phase: G0/G1 ([5]; Jurkat, 100 μg/ml) [%] | % of cells in phase: G2/M ([5]; Jurkat, 100 μg/ml) [%] | % of cells in phase: SE ([5]; Jurkat, 100 μg/ml) [%] | % of cells in phase: SL ([5]; Jurkat, 100 μg/ml) [%] | % of cells in phase: SM ([5]; Jurkat, 100 μg/ml) [%] | Arrest (cell cycle) ([5]; Jurkat, 100 μg/ml) | IL-10 fold increase: mean +/− SD (rhesus monkey PBMCs) | IL-12 fold increase: mean +/− SD (rhesus monkey PBMCs) | TNF-alpha fold increase: mean +/− SD (rhesus monkey PBMCs) | % NuMA released (treated vs untreated cells) ([6]; Jurkat) [%] | further results
1 | GGGTGG [SEQ ID NO:25] | 41 | 11 | 27 | 38 | 28.5 | 0.0 | 46.3 | 10.7 | 14.6 | End SE | 1.0 +/− 0.1 fold increase | 10.6 +/− 4.7 fold increase | 12.5 +/− 5.2 fold increase | 69 | % INHIBITION of MCF-7 proliferation, 5-Fluorouracil 0.1 μg/ml ([1]; 5-fluorouracil 0.1 μg/ml, alone or with sequence at 1.0 μg/ml): 24%; % INHIBITION of MCF-7 proliferation, 5-Fluorouracil 1.0 μg/ml ([1]; 5-fluorouracil 1.0 μg/ml, alone or with sequence at 1.0 μg/ml): 36%; % INHIBITION of MCF-7 proliferation, 5-Fluorouracil 10.0 μg/ml ([1]; 5-fluorouracil 10.0 μg/ml, alone or with sequence at 1.0 μg/ml): 33%; potentiation of antineoplastic effect of 5-fluorouracil on MCF-7 cell proliferation ([1]; sequence 1.0 μg/ml, 0.1 μg/ml 5-fluorouracil): potentiated; potentiation of antineoplastic effect of tamoxifen on MCF-7 cell proliferation ([1]; sequence 1.0 μg/ml, 0.1 μg/ml tamoxifen): potentiated; % INHIBITION of MCF-7 proliferation, 5-Fluorouracil 0.0 μg/ml ([1]; sequence at 1.0 μg/ml, 5-fluorouracil 0.0 μg/ml): 6%; % INHIBITION of MCF-7 proliferation, Tamoxifen 0.0 μg/ml ([1]; sequence at 1.0 μg/ml, tamoxifen 0.0 μg/ml): 6%; % INHIBITION of MCF-7 proliferation, Tamoxifen 0.1 μg/ml ([1]; tamoxifen 0.1 μg/ml, alone or with sequence at 1.0 μg/ml): 21%; % INHIBITION of MCF-7 proliferation, Tamoxifen 1.0 μg/ml ([1]; tamoxifen 1.0 μg/ml, alone or with sequence at 1.0 μg/ml): 24%; % INHIBITION of MCF-7 proliferation, Tamoxifen 10.0 μg/ml ([1]; tamoxifen 10.0 μg/ml, alone or with sequence at 1.0 μg/ml): 31%; % cells in phase: G0/G1 [5, 7]: 28.0%; % cells in phase: G2/M [5, 7]: 0.9%; % cells in phase: SE [5, 7]: 45.8%; % cells in phase: SL [5, 7]: 11.3%; % cells in phase: SM [5, 7]: 14.0%; Arrest (cell cycle) [5, 7]: induced arrest at the end of the SE phase of the cell cycle; % NUMA RELEASED ([6]; Jurkat 1×10^6/ml): 269%; % NuMA released (untreated vs treated cells) ([6]; Jurkat, 24 h, sequences heated 10 minutes at 65° C.): 69%
2 | GTGTGT [SEQ ID NO:10] | 31 | 9 | 33 | 37 | 30.8 | 0.3 | 41.9 | 10.2 | 16.8 | End SE | 1.3 +/− 0.1 fold increase | 10.7 +/− 4.1 fold increase | 16.1 +/− 4.2 fold increase | 90 | –
3 | TTGTTT [SEQ ID NO:26] | 20 | 15 | 14 | 18 | 32.6 | 32.4 | 11.5 | 10.7 | 12.8 | END G2/M | 1.0 +/− 0.1 fold increase | – | 2.1 +/− 1.0 fold increase | 23 | –
